Experimental data: the NIST ThermoML archive (doi:10.1016/j.fluid.2014.09.014)

Experiment: refractive index (other wavelength) (dimensionless); xn = mol fraction of the nth substance listed
Conditions: 101 kPa, Liquid, Standard Abbe refractometry

CC(C)OC(C)C [diisopropyl ether] + CC(C)O
Conditions | refractive index
293.5 K, Wavelength=632.8 nm, x1 = 0.8864 | 1.36832
293.5 K, Wavelength=632.8 nm, x1 = 0.8903 | 1.36795
293.5 K, Wavelength=632.8 nm, x1 = 0.9113 | 1.36771
293.5 K, Wavelength=632.8 nm, x1 = 0.9547 | 1.36732
293.5 K, Wavelength=632.8 nm, x1 = 0.973 | 1.36703
293.5 K, Wavelength=632.8 nm, x1 = 0.9771 | 1.36706
293.5 K, Wavelength=632.8 nm, x1 = 1 | 1.36674
293.5 K, Wavelength=644 nm, x1 = 0.0277 | 1.37541
293.5 K, Wavelength=644 nm, x1 = 0.0507 | 1.37531
293.5 K, Wavelength=644 nm, x1 = 0.051 | 1.37539
293.5 K, Wavelength=644 nm, x1 = 0.0717 | 1.37515
293.5 K, Wavelength=644 nm, x1 = 0.1528 | 1.37461
293.5 K, Wavelength=644 nm, x1 = 0.1553 | 1.37461
293.5 K, Wavelength=644 nm, x1 = 0.1938 | 1.3743
293.5 K, Wavelength=644 nm, x1 = 0.2029 | 1.37411
293.5 K, Wavelength=644 nm, x1 = 0.245 | 1.37374
293.5 K, Wavelength=644 nm, x1 = 0.297 | 1.37347
293.5 K, Wavelength=644 nm, x1 = 0.2973 | 1.3737
293.5 K, Wavelength=644 nm, x1 = 0.3068 | 1.37314
293.5 K, Wavelength=644 nm, x1 = 0.398 | 1.37206
293.5 K, Wavelength=644 nm, x1 = 0.4609 | 1.3715
293.5 K, Wavelength=644 nm, x1 = 0.5434 | 1.37078
293.5 K, Wavelength=644 nm, x1 = 0.6032 | 1.37023
293.5 K, Wavelength=644 nm, x1 = 0.6371 | 1.36988
293.5 K, Wavelength=644 nm, x1 = 0.701 | 1.36928
293.5 K, Wavelength=644 nm, x1 = 0.754 | 1.36891
293.5 K, Wavelength=644 nm, x1 = 0.791 | 1.36857
293.5 K, Wavelength=644 nm, x1 = 0.8296 | 1.36824
293.5 K, Wavelength=644 nm, x1 = 0.8864 | 1.36802
293.5 K, Wavelength=644 nm, x1 = 0.8903 | 1.36765
293.5 K, Wavelength=644 nm, x1 = 0.9113 | 1.36741
293.5 K, Wavelength=644 nm, x1 = 0.9547 | 1.36702
293.5 K, Wavelength=644 nm, x1 = 0.973 | 1.36673
293.5 K, Wavelength=644 nm, x1 = 0.9771 | 1.36675
293.5 K, Wavelength=644 nm, x1 = 1 | 1.36644
293.5 K, Wavelength=706.5 nm, x1 = 0.0277 | 1.37391
293.5 K, Wavelength=706.5 nm, x1 = 0.0507 | 1.37381
293.5 K, Wavelength=706.5 nm, x1 = 0.051 | 1.37389
293.5 K, Wavelength=706.5 nm, x1 = 0.0717 | 1.37366
293.5 K, Wavelength=706.5 nm, x1 = 0.1528 | 1.37313
293.5 K, Wavelength=706.5 nm, x1 = 0.1553 | 1.37313
293.5 K, Wavelength=706.5 nm, x1 = 0.1938 | 1.37281
293.5 K, Wavelength=706.5 nm, x1 = 0.2029 | 1.37263
293.5 K, Wavelength=706.5 nm, x1 = 0.245 | 1.37227
293.5 K, Wavelength=706.5 nm, x1 = 0.297 | 1.372
293.5 K, Wavelength=706.5 nm, x1 = 0.2973 | 1.37222
293.5 K, Wavelength=706.5 nm, x1 = 0.3068 | 1.37167
293.5 K, Wavelength=706.5 nm, x1 = 0.398 | 1.37061
293.5 K, Wavelength=706.5 nm, x1 = 0.4609 | 1.37005
293.5 K, Wavelength=706.5 nm, x1 = 0.5434 | 1.36934
293.5 K, Wavelength=706.5 nm, x1 = 0.6032 | 1.36879
293.5 K, Wavelength=706.5 nm, x1 = 0.6371 | 1.36844
293.5 K, Wavelength=706.5 nm, x1 = 0.701 | 1.36784
293.5 K, Wavelength=706.5 nm, x1 = 0.754 | 1.36746
293.5 K, Wavelength=706.5 nm, x1 = 0.791 | 1.36713
293.5 K, Wavelength=706.5 nm, x1 = 0.8296 | 1.3668
293.5 K, Wavelength=706.5 nm, x1 = 0.8864 | 1.36658
293.5 K, Wavelength=706.5 nm, x1 = 0.8903 | 1.3662
293.5 K, Wavelength=706.5 nm, x1 = 0.9113 | 1.36598
293.5 K, Wavelength=706.5 nm, x1 = 0.9547 | 1.36559
293.5 K, Wavelength=706.5 nm, x1 = 0.973 | 1.36529
293.5 K, Wavelength=706.5 nm, x1 = 0.9771 | 1.36532
293.5 K, Wavelength=706.5 nm, x1 = 1 | 1.36501
298.15 K, Wavelength=404.7 nm, x1 = 0.0277 | 1.38582
298.15 K, Wavelength=404.7 nm, x1 = 0.0507 | 1.38573
298.15 K, Wavelength=404.7 nm, x1 = 0.051 | 1.38574
298.15 K, Wavelength=404.7 nm, x1 = 0.0717 | 1.38551
298.15 K, Wavelength=404.7 nm, x1 = 0.1528 | 1.38491
298.15 K, Wavelength=404.7 nm, x1 = 0.1553 | 1.38491
298.15 K, Wavelength=404.7 nm, x1 = 0.1938 | 1.38463
298.15 K, Wavelength=404.7 nm, x1 = 0.2029 | 1.38436
298.15 K, Wavelength=404.7 nm, x1 = 0.245 | 1.38392
298.15 K, Wavelength=404.7 nm, x1 = 0.297 | 1.38349
298.15 K, Wavelength=404.7 nm, x1 = 0.2973 | 1.38372
298.15 K, Wavelength=404.7 nm, x1 = 0.3068 | 1.38326
298.15 K, Wavelength=404.7 nm, x1 = 0.398 | 1.38211
298.15 K, Wavelength=404.7 nm, x1 = 0.4609 | 1.3815
298.15 K, Wavelength=404.7 nm, x1 = 0.5434 | 1.38067
298.15 K, Wavelength=404.7 nm, x1 = 0.6032 | 1.3801
298.15 K, Wavelength=404.7 nm, x1 = 0.6371 | 1.37972
298.15 K, Wavelength=404.7 nm, x1 = 0.701 | 1.37906
298.15 K, Wavelength=404.7 nm, x1 = 0.754 | 1.37868
298.15 K, Wavelength=404.7 nm, x1 = 0.791 | 1.3783
298.15 K, Wavelength=404.7 nm, x1 = 0.8296 | 1.37799
298.15 K, Wavelength=404.7 nm, x1 = 0.8864 | 1.37775
298.15 K, Wavelength=404.7 nm, x1 = 0.8903 | 1.37734
298.15 K, Wavelength=404.7 nm, x1 = 0.9113 | 1.37711
298.15 K, Wavelength=404.7 nm, x1 = 0.9547 | 1.37676
298.15 K, Wavelength=404.7 nm, x1 = 0.973 | 1.37634
298.15 K, Wavelength=404.7 nm, x1 = 0.9771 | 1.37629
298.15 K, Wavelength=404.7 nm, x1 = 1 | 1.37607
298.15 K, Wavelength=435.8 nm, x1 = 0.0277 | 1.38277
298.15 K, Wavelength=435.8 nm, x1 = 0.0507 | 1.38268
298.15 K, Wavelength=435.8 nm, x1 = 0.051 | 1.38276
